{"source": "patent US11737999B2", "about": "“Amino acid compositions and methods for the treatment of post-acute sequelae of COVID-19” (AXCELLA HEALTH INC., priority 2021, dated 2023)", "key": {"[1]": {"system": "Col1a1", "experiment": "Col1a1 gene expression (RT-qPCR) in primary human hepatic stellate cells stimulated with TGFβ1", "assay_type": "cell-based"}, "[2]": {"system": "Procollagen Iα1", "experiment": "Procollagen Iα1 secretion (ELISA) in primary human hepatic stellate cells stimulated with TGFβ1", "assay_type": "cell-based", "conditions": "for Procollagen lα1 Secretion (Fold Change of 1X), Mean: first donor, TGFβ1 3 ng/mL 24 h"}, "[3]": {"system": "IL-6", "experiment": "IL-6 cytokine secretion in primary human hepatic stellate cells stimulated with TNFα", "assay_type": "cell-based", "conditions": "hepatic stellate cells, two donors"}, "[4]": {"system": "IL-6", "experiment": "LPS-induced IL-6 secretion in primary human monocyte-derived macrophages", "conditions": "for IL-6 Measurements, Mean: 0.15 ng/mL LPS, baseline subtracted values"}, "[5]": {"system": "MCP-1", "experiment": "MCP-1 chemokine secretion in primary human hepatic stellate cells stimulated with TNFα", "assay_type": "cell-based", "conditions": "hepatic stellate cells, two donors"}, "[6]": {"system": "MCP1/CCL2", "experiment": "MCP1/CCL2 secretion by ELISA in primary human hepatocytes with FFA + TNFα", "assay_type": "cell-based"}, "[7]": {"system": "TNF-α", "experiment": "LPS-induced TNF-α secretion in primary human monocyte-derived macrophages", "conditions": "for TNF-α Measurements Mean (baseline subtracted): 0.15 ng/mL LPS"}, "[8]": {"conditions": "hepatic stellate cells, three donors"}}}
{"smiles": "CC(=O)N[C@@H](CS)C(=O)O", "note": "[N-Acetyl Cysteine, N-acetylcysteine]", "values": [{"measurement": "Col1a1 Fold Expression Relative to Control, Mean", "setting": "[1]; first donor, 1000 μM, single amino acid", "value": 1.00, "unit": "fold"}, {"measurement": "Col1a1 Fold Expression Relative to Control, Mean", "setting": "[1]; first donor, 10000 μM, single amino acid", "value": 0.76, "unit": "fold"}, {"measurement": "Col1a1 Fold Expression Relative to Control, Mean", "setting": "[1]; first donor, 5X, normalized to Gapdh, TGFβ1 3 ng/mL 24 h", "value": 1.00, "unit": "fold"}, {"measurement": "Col1a1 Fold Expression Relative to Control, Mean", "setting": "[1]; first donor, 10X, normalized to Gapdh, TGFβ1 3 ng/mL 24 h", "value": 1.07, "unit": "fold"}, {"measurement": "Col1a1 Fold Expression Relative to Control, Mean", "setting": "[1]; first donor, 20X, normalized to Gapdh, TGFβ1 3 ng/mL 24 h", "value": 1.02, "unit": "fold"}, {"measurement": "Col1a1 Fold Expression Relative to Control, Mean", "setting": "[1]; first donor, 40X, normalized to Gapdh, TGFβ1 3 ng/mL 24 h", "value": 0.76, "unit": "fold"}, {"measurement": "Col1a1 gene expression (summary in words)", "setting": "[1]; [8]", "value": "significantly reduced Col1a1 gene expression in all three donors"}, {"measurement": "Col1a1 Fold Expression Relative to Control, Mean", "setting": "[1]; second donor (Table 27), 1000 μM, single amino acid", "value": 0.69, "unit": "fold"}, {"measurement": "Col1a1 Fold Expression Relative to Control, Mean", "setting": "[1]; second donor (Table 27), 2500 μM, single amino acid", "value": 0.69, "unit": "fold"}, {"measurement": "Col1a1 Fold Expression Relative to Control, Mean", "setting": "[1]; second donor (Table 27), 5000 μM, single amino acid", "value": 0.69, "unit": "fold"}, {"measurement": "Col1a1 Fold Expression Relative to Control, Mean", "setting": "[1]; second donor (Table 27), 10000 μM, single amino acid", "value": 0.57, "unit": "fold"}, {"measurement": "Col1a1 Fold Expression Relative to Control, Mean", "setting": "[1]; second donor (Table 29), 1000 μM, single amino acid", "value": 0.91, "unit": "fold"}, {"measurement": "Col1a1 Fold Expression Relative to Control, Mean", "setting": "[1]; second donor (Table 29), 2500 μM, single amino acid", "value": 0.82, "unit": "fold"}, {"measurement": "Col1a1 Fold Expression Relative to Control, Mean", "setting": "[1]; second donor (Table 29), 5000 μM, single amino acid", "value": 0.73, "unit": "fold"}, {"measurement": "Col1a1 Fold Expression Relative to Control, Mean", "setting": "[1]; second donor (Table 29), 10000 μM, single amino acid", "value": 0.62, "unit": "fold"}, {"measurement": "Col1a1 Fold Expression Relative to Control, Mean", "setting": "[1]; second donor, 5X, normalized to Gapdh, TGFβ1 3 ng/mL 24 h", "value": 0.69, "unit": "fold"}, {"measurement": "Col1a1 Fold Expression Relative to Control, Mean", "setting": "[1]; second donor, 10X, normalized to Gapdh, TGFβ1 3 ng/mL 24 h", "value": 0.69, "unit": "fold"}, {"measurement": "Col1a1 Fold Expression Relative to Control, Mean", "setting": "[1]; second donor, 20X, normalized to Gapdh, TGFβ1 3 ng/mL 24 h", "value": 0.69, "unit": "fold"}, {"measurement": "Col1a1 Fold Expression Relative to Control, Mean", "setting": "[1]; second donor, 40X, normalized to Gapdh, TGFβ1 3 ng/mL 24 h", "value": 0.57, "unit": "fold"}, {"measurement": "Col1a1 Fold Expression Relative to Control, Mean", "setting": "[1]; third donor, 5X, normalized to Gapdh, TGFβ1 3 ng/mL 24 h", "value": 0.91, "unit": "fold"}, {"measurement": "Col1a1 Fold Expression Relative to Control, Mean", "setting": "[1]; third donor, 10X, normalized to Gapdh, TGFβ1 3 ng/mL 24 h", "value": 0.82, "unit": "fold"}, {"measurement": "Col1a1 Fold Expression Relative to Control, Mean", "setting": "[1]; third donor, 20X, normalized to Gapdh, TGFβ1 3 ng/mL 24 h", "value": 0.73, "unit": "fold"}, {"measurement": "Col1a1 Fold Expression Relative to Control, Mean", "setting": "[1]; third donor, 40X, normalized to Gapdh, TGFβ1 3 ng/mL 24 h", "value": 0.62, "unit": "fold"}, {"measurement": "Procollagen lα1 Secretion (Fold Change of 1X), Mean", "setting": "[2]; 5X", "value": 0.9175, "unit": "fold"}, {"measurement": "Procollagen lα1 Secretion (Fold Change of 1X), Mean", "setting": "[2]; 10X", "value": 0.7939, "unit": "fold"}, {"measurement": "Procollagen lα1 Secretion (Fold Change of 1X), Mean", "setting": "[2]; 20X", "value": 0.6593, "unit": "fold"}, {"measurement": "Procollagen lα1 Secretion (Fold Change of 1X), Mean", "setting": "[2]; 40X", "value": 0.5076, "unit": "fold"}, {"measurement": "procollagen Iα1 secretion (summary in words)", "setting": "[2]; [8]", "value": "significantly decrease procollagen Iα1 secretion in two of the three donors"}, {"measurement": "Procollagen Iα1 Secretion, Mean", "setting": "[2]; second donor, Conc. 5 X", "value": "0.8387 Fold Change of 1X"}, {"measurement": "Procollagen Iα1 Secretion, Mean", "setting": "[2]; second donor, Conc. 10 X", "value": "0.8877 Fold Change of 1X"}, {"measurement": "Procollagen Iα1 Secretion, Mean", "setting": "[2]; second donor, Conc. 20 X", "value": "0.7378 Fold Change of 1X"}, {"measurement": "Procollagen Iα1 Secretion, Mean", "setting": "[2]; second donor, Conc. 40 X", "value": "0.8383 Fold Change of 1X"}, {"measurement": "Procollagen Iα1 Secretion, Mean", "setting": "[2]; third donor, Conc. 5 X", "value": "1.0897 Fold Change of 1×"}, {"measurement": "Procollagen Iα1 Secretion, Mean", "setting": "[2]; third donor, Conc. 10 X", "value": "0.9391 Fold Change of 1×"}, {"measurement": "Procollagen Iα1 Secretion, Mean", "setting": "[2]; third donor, Conc. 20 X", "value": "0.8521 Fold Change of 1×"}, {"measurement": "Procollagen Iα1 Secretion, Mean", "setting": "[2]; third donor, Conc. 40 X", "value": "0.6962 Fold Change of 1×"}, {"measurement": "IL-6 secretion (summary in words)", "setting": "[3]", "value": "reduced IL-6 secretion in both donors but was only statistically significant in one of two donors"}, {"measurement": "LPS-induced IL-6 secretion (summary in words)", "setting": "[4]; Donor 1", "value": "significantly reduced LPS-induced IL-6 secretion"}, {"measurement": "LPS-induced IL-6 secretion (summary in words)", "setting": "[4]; Donor 2", "value": "significantly reduced LPS-induced IL-6 secretion"}, {"measurement": "IL-6 Measurements, Mean", "setting": "[4]; Donor 2, Conc. 5 X", "value": "−0.7946"}, {"measurement": "IL-6 Measurements, Mean", "setting": "[4]; Donor 2, Conc. 10 X", "value": "−9.751"}, {"measurement": "IL-6 Measurements, Mean", "setting": "[4]; Donor 2, Conc. 40 X", "value": "−33.7585"}, {"measurement": "LPS-induced IL-6 secretion (summary in words)", "setting": "[4]; Donor 3", "value": "significantly reduced LPS-induced IL-6 secretion"}, {"measurement": "MCP-1 secretion (summary in words)", "setting": "[5]", "value": "significantly reduced MCP-1 secretion in both donors"}, {"measurement": "MCP1 expression relative to Control, Mean", "setting": "[6]; Donor 1, Conc. 1000 μM", "value": "−0.7629"}, {"measurement": "MCP1 expression relative to Control, Mean", "setting": "[6]; Donor 1, Conc. 2500 μM", "value": "−2.498"}, {"measurement": "MCP1 expression relative to Control, Mean", "setting": "[6]; Donor 1, Conc. 5000 μM", "value": "−10.8919"}, {"measurement": "MCP1 expression relative to Control, Mean", "setting": "[6]; Donor 1, Conc. 10000 μM", "value": "−17.6065"}, {"measurement": "MCP1 expression relative to Control, Mean", "setting": "[6]; Donor 2, Conc. 1000 μM", "value": 1.602}, {"measurement": "MCP1 expression relative to Control, Mean", "setting": "[6]; Donor 2, Conc. 2500 μM", "value": "−4.0591"}, {"measurement": "MCP1 expression relative to Control, Mean", "setting": "[6]; Donor 2, Conc. 5000 μM", "value": "−10.5725"}, {"measurement": "MCP1 expression relative to Control, Mean", "setting": "[6]; Donor 2, Conc. 10000 μM", "value": "−28.4419"}, {"measurement": "MCP1/CCL2 secretion (summary in words)", "setting": "[6]; primary human hepatocytes, two healthy donors", "value": "significantly decrease MCP1/CCL2 secretion"}, {"measurement": "LPS-induced TNF-α secretion (summary in words)", "setting": "[7]; Donor 1", "value": "significantly reduced LPS-induced TNF-α secretion"}, {"measurement": "TNF-α Measurements Mean (baseline subtracted)", "setting": "[7]; Donor 1, Conc. 0 X (baseline)", "value": 0}, {"measurement": "TNF-α Measurements Mean (baseline subtracted)", "setting": "[7]; Donor 1, Conc. 5 X", "value": "−326.24"}, {"measurement": "TNF-α Measurements Mean (baseline subtracted)", "setting": "[7]; Donor 1, Conc. 10 X", "value": "−446.88"}, {"measurement": "TNF-α Measurements Mean (baseline subtracted)", "setting": "[7]; Donor 1, Conc. 20 X", "value": "−561.33"}, {"measurement": "TNF-α Measurements Mean (baseline subtracted)", "setting": "[7]; Donor 1, Conc. 40 X", "value": "−644.49"}, {"measurement": "LPS-induced TNF-α secretion (summary in words)", "setting": "[7]; Donor 2", "value": "significantly reduced LPS-induced TNF-α secretion"}, {"measurement": "TNF-α Measurements Mean (baseline subtracted)", "setting": "[7]; Donor 2, Conc. 0 X (baseline)", "value": "9.47E−15"}, {"measurement": "TNF-α Measurements Mean (baseline subtracted)", "setting": "[7]; Donor 2, Conc. 5 X", "value": "−54.1596"}, {"measurement": "TNF-α Measurements Mean (baseline subtracted)", "setting": "[7]; Donor 2, Conc. 10 X", "value": "−70.8382"}, {"measurement": "TNF-α Measurements Mean (baseline subtracted)", "setting": "[7]; Donor 2, Conc. 20 X", "value": "−88.6528"}, {"measurement": "TNF-α Measurements Mean (baseline subtracted)", "setting": "[7]; Donor 2, Conc. 40 X", "value": "−103.984"}, {"measurement": "LPS-induced TNF-α secretion (summary in words)", "setting": "[7]; Donor 3", "value": "significantly reduced LPS-induced TNF-α secretion"}, {"measurement": "TNF-α Measurements Mean (baseline subtracted)", "setting": "[7]; Donor 3, Conc. 0 X (baseline)", "value": "4.74E−15"}, {"measurement": "TNF-α Measurements Mean (baseline subtracted)", "setting": "[7]; Donor 3, Conc. 5 X", "value": "−33.6246"}, {"measurement": "TNF-α Measurements Mean (baseline subtracted)", "setting": "[7]; Donor 3, Conc. 10 X", "value": "−41.7266"}, {"measurement": "TNF-α Measurements Mean (baseline subtracted)", "setting": "[7]; Donor 3, Conc. 20 X", "value": "−48.4373"}, {"measurement": "TNF-α Measurements Mean (baseline subtracted)", "setting": "[7]; Donor 3, Conc. 40 X", "value": "−55.3093"}]}
